Measurements: PubChem BioAssay AID2060905 (Molecular Pharmacology Branch, DTP, NCI, 2025)
Several values for one entry are separate records, joined by “and”; a condition that tells them apart may be missing. Equal entries are not always repeated.

Tested on: 282377-053-R-J1-PDC complex spheroid viability
Test: Anticancer human tumor 282377-053-R-J1-PDC patient-derived colon adenocarcinoma cell line growth inhibition [RAS]
Details: for viability, T/C: stronger effect = lower value; active = viability on the fitted dose curve at most 10% of control; inactive = the rest
Excerpt: RAS pathway inhibitors in Combinations in Complex Spheroids
A high-throughput screen of multi-cell type tumor spheroids was designed to identify active combinations of RAS pathway inhibitors and targeted small molecules. Complex spheroids include a stromal component modeled by human endothelial cells (HUVEC) and fibroblasts modeled by human mesenchymal stem cells (MSCs). The concentration ranges selected for each drug and investigational agent were based upon clinically achievable concentrations if the clinical Cmax of the agent was known.
Compounds. The drugs and investigational agents: abemaciclib (NSC768073), cobimetinib (NSC768068), divarasib (GDC6063, NSC841802), docetaxel (NSC628503), GDC-1971 (RLY-1971, NSC841576), gemcitabine (NSC613327), inavolisib (NSC800729), ipatasertib (NSC767898), KB-0742 (NSC834161), MRTX-1133 (NSC836407), osimertinib (NSC779217), RMC-4630 (NSC839698), RMC-6236 (NSC851965), RMC-6291 (NSC852671), Ro-3306 (NSC812927), sapanisertib (NSC764658), SN-38 (NSC673596), staurosporine (NSC755774), SY5609 (NSC837396), and tovorafenib (DAY101, NSC766906), were obtained from the National Cancer Institute (NCI) Developmental Therapeutics Program Chemical Repository. The FDA-approved anticancer drug set is available from the NCI Developmental Therapeutics Program. […] The stock solutions were prepared in dimethyl sulfoxide (DMSO, Sigma-Aldrich, St. Louis, MO, cat. D2650) at 800-fold the tested concentration and stored at -70 degrees C prior to their use. All drugs and investigational agents were tested over a range starting from a high concentration at or near the clinical Cmax and decreasing in half-log increments. If the clinical Cmax for an agent had not been determined, the highest concentration tested was 10 microM.
Cell Culture. All cells were maintained in an incubator at 37 degrees C and 5% CO2 with 95% humidity. The PDC lines were cultured according to standard operating procedures established by the NCI PDMR. All PDCs were thawed and cultured in Matrigel-coated flasks prepared with a working solution of 1X Ham's F-12 nutrient mix, without supplementation (Invitrogen, Waltham, MA, cat. 11765054), 100 U/mL penicillin-streptomycin (Invitrogen, cat. 15140122), and 2.5% Matrigel (Corning Inc., Corning, NY, cat. 354248) for the first three passages. The 362531-283-R-J2-PDC and 782815-120-R-J1-PDC lines were cultured in 6C/Colon 1B media, which includes advanced DMEM/F-12 (Thermo Fisher Scientific, cat. 12634028), 10 mM HEPES (Thermo Fisher Scientific, cat. 15630080), 1X GlutaMAX supplement (Thermo Fisher Scientific, cat. 35050061), 0.1 mg/mL primocin (InvivoGen, San Diego, CA, cat. ant-pm-2), 10% defined fetal bovine serum, heat inactivated (HyClone Laboratories Inc., Logan, UT, cat. SH30070.03HI), 50% L-WRN conditioned media (ATCC, cat. CRL-3276), 1.25 mM N-Acetyl-L-cysteine (Sigma-Aldrich, cat. A9165), 10 mM nicotinamide (Sigma-Aldrich, cat. N0636), 1X B-27 supplement (Thermo Fisher Scientific, cat. 17504044), 1X N-2 supplement (Thermo Fisher Scientific, cat. 17502048), 50 ng/mL human EGF (Thermo Fisher Scientific, cat. PHG0311), and 10 microM Y-27632 dihydrochloride (Tocris Bioscience, cat. 1254). The K12877-001-R-J1-PDC line was cultured in 6I media, which includes all 6C/Colon 1B media plus 10 ng/mL human FGF-10 (PeproTech, cat. 100-26), 1 ng/mL human FGF-2 (PeproTech, cat. 100-18B), 1 µM prostaglandin E2 (Tocris Bioscience, cat. 2296), […] hydrocortisone (Sigma-Aldrich, cat. H4001), and […] bovine insulin (Sigma-Aldrich, cat. I6634). The K86415-001-R-J1-PDC line was cultured in 6D media, which includes all 6C/Colon 1B media components minus the L-WRN conditioned media. The 485176-168-R4-J1-PDC was cultured in PANC media, which includes all 6C/Colon 1B media plus 100 ng/mL human FGF-10 (PeproTech, cat. 100-26), 500 nM SB-431542 (Selleckchem, cat. S1067), and 10 nM gastrin (Tocris Bioscience, cat. 3006). […]

[1] = curve of first compound, second compound 0.0316 µM
[2] = curve of first compound, second compound 0.1 µM
[3] = curve of first compound, second compound 0.316 µM
[4] = curve of first compound, second compound 1 µM
[5] = curve of first compound, second compound 3.16 µM
[6] = curve of first compound, second compound 10 µM
[7] = second compound 0.0316 µM, first compound 0.00316 µM
[8] = second compound 0.0316 µM, first compound 0.01 µM
[9] = second compound 0.0316 µM, first compound 0.0316 µM
[10] = second compound 0.0316 µM, first compound 0.1 µM
[11] = second compound 0.0316 µM, first compound 0.316 µM
[12] = second compound 0.0316 µM, first compound 1 µM
[13] = second compound 0.1 µM, first compound 0.00316 µM
[14] = second compound 0.1 µM, first compound 0.01 µM
[15] = second compound 0.1 µM, first compound 0.0316 µM
[16] = second compound 0.1 µM, first compound 0.1 µM
[17] = second compound 0.1 µM, first compound 0.316 µM
[18] = second compound 0.1 µM, first compound 1 µM
[19] = second compound 0.316 µM, first compound 0.00316 µM
[20] = second compound 0.316 µM, first compound 0.01 µM
[21] = second compound 0.316 µM, first compound 0.0316 µM
[22] = second compound 0.316 µM, first compound 0.1 µM
[23] = second compound 0.316 µM, first compound 0.316 µM
[24] = second compound 0.316 µM, first compound 1 µM
[25] = second compound 1 µM, first compound 0.00316 µM
[26] = second compound 1 µM, first compound 0.01 µM
[27] = second compound 1 µM, first compound 0.0316 µM
[28] = second compound 1 µM, first compound 0.1 µM
[29] = second compound 1 µM, first compound 0.316 µM
[30] = second compound 1 µM, first compound 1 µM
[31] = second compound 3.16 µM, first compound 0.00316 µM
[32] = second compound 3.16 µM, first compound 0.01 µM
[33] = second compound 3.16 µM, first compound 0.0316 µM
[34] = second compound 3.16 µM, first compound 0.1 µM
[35] = second compound 3.16 µM, first compound 0.316 µM
[36] = second compound 3.16 µM, first compound 1 µM
[37] = second compound 10 µM, first compound 0.00316 µM
[38] = second compound 10 µM, first compound 0.01 µM
[39] = second compound 10 µM, first compound 0.0316 µM
[40] = second compound 10 µM, first compound 0.1 µM
[41] = second compound 10 µM, first compound 0.316 µM
[42] = second compound 10 µM, first compound 1 µM
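Note: spheroids exposed to agents for seven days before readout.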
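Throughout, for viability, T/C: luminescence viability as percent of DMSO vehicle control wells.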

C#Cc1c(F)ccc2cc(O)cc(-c3ncc4c(N5CC6CCC(C5)N6)nc(OCC56CCCN5CC(F)C6)nc4c3F)c12 (stereo unspecified)
> 10 µM: IC50 (compound alone, run of 06/10/2024)
inactive: viability, T/C (compound 0.1 µM) 104% [middle of 8 runs] | viability, T/C (compound 0.316 µM) 102% [middle of 8 runs] | viability, T/C (compound 3.16 µM) 111% [middle of 8 runs] | viability, T/C (compound 10 µM) 104% [middle of 8 runs]

CC(=O)OC12COC1CC(O)C1(C)C(=O)C(O)C3=C(C)C(OC(=O)C(O)C(NC(=O)OC(C)(C)C)c4ccccc4)CC(O)(C(OC(=O)c4ccccc4)C21)C3(C)C (stereo unspecified)
inactive: viability, T/C (compound 0.1 µM) 33.6% [middle of 4 runs] | viability, T/C (compound 0.316 µM) 37.9% [middle of 4 runs]
< 0.0316 µM: IC50 (curve of compound)

CC1(O)CCCC1n1c(=O)c(C(F)F)cc2cnc(NC3CCN(S(C)(=O)=O)CC3)nc21 (stereo unspecified)
5.45% [middle of 4 runs]: viability, T/C (compound 10 µM)
inactive: viability, T/C (compound 0.1 µM) 128% [middle of 4 runs] | viability, T/C (compound 1 µM) 112% (2×) and 190% and 160%
6.64 µM [middle of 4 runs]: IC50 (curve of compound)

CCC(CC)c1cc(NC2CCC(N)C2)n2nccc2n1 (stereo unspecified)
10.4% [middle of 4 runs]: viability, T/C (compound 3.16 µM)
inactive: viability, T/C (compound 1 µM) 112% [middle of 4 runs]
1.96 µM [middle of 4 runs]: IC50 (curve of compound)
active: viability, T/C (compound 10 µM) 3% [middle of 4 runs]

Cc1nc(N2CCC3(CC2)COC(C)C3N)c(CO)nc1Sc1ccnc(N)c1Cl (stereo unspecified)
> 10 µM: IC50 (curve of compound)
inactive: viability, T/C (compound 0.0316 µM) 93.8% and 100% (2×) and 88.5% | viability, T/C (compound 0.316 µM) 94.9% [middle of 4 runs] | viability, T/C (compound 1 µM) 102% [middle of 4 runs]

NC1c2ccccc2OC12CCN(c1cnc3c(N4CCCc5ncccc54)n[nH]c3n1)CC2 (stereo unspecified)
inactive: viability, T/C (compound 0.0316 µM) 98.1% [middle of 4 runs] | viability, T/C (compound 0.1 µM) 98.2% [middle of 4 runs] | viability, T/C (compound 0.316 µM) 101% [middle of 4 runs] | viability, T/C (compound 1 µM) 109% (2×) and 96.3% and 103% | viability, T/C (compound 3.16 µM) 97.5% [middle of 4 runs] | viability, T/C (compound 10 µM) 89.8% [middle of 4 runs]
> 10 µM: IC50 (curve of compound)

C=CC(=O)Nc1cc(Nc2nccc(-c3cn(C)c4ccccc34)n2)c(OC)cc1N(C)CCN(C)C + C#Cc1c(F)ccc2cc(O)cc(-c3ncc4c(N5CC6CCC(C5)N6)nc(OCC56CCCN5CC(F)C6)nc4c3F)c12
> 1 µM: IC50 [1] | IC50 [2] | IC50 [3] | IC50 [4] | IC50 [5] | IC50 [6]
inactive: viability, T/C [7] 104% | viability, T/C [8] 91.5% | viability, T/C [9] 98.2% | viability, T/C [10] 104% | viability, T/C [11] 95.6% | viability, T/C [12] 110% | viability, T/C [13] 96.6% | viability, T/C [14] 90.4% | viability, T/C [15] 99.9% | viability, T/C [16] 91.9% | viability, T/C [17] 93.5% | viability, T/C [18] 97.4% | viability, T/C [19] 88.1% | viability, T/C [20] 85.3% | viability, T/C [21] 84.9% | viability, T/C [22] 86.1% | viability, T/C [23] 91.7% | viability, T/C [24] 85.9% | viability, T/C [25] 98.5% | viability, T/C [26] 100% | viability, T/C [27] 93% | viability, T/C [28] 108% | viability, T/C [29] 82.8% | viability, T/C [30] 95.9% | viability, T/C [31] 88.2% | viability, T/C [32] 87.8% | viability, T/C [33] 114% | viability, T/C [34] 92.3% | viability, T/C [35] 108% | viability, T/C [36] 101% | viability, T/C [37] 103% | viability, T/C [38] 94.9% | viability, T/C [39] 108% | viability, T/C [40] 73% | viability, T/C [41] 80.1% | viability, T/C [42] 99.2%

O=C(c1ccc(F)c(F)c1Nc1ccc(I)cc1F)N1CC(O)([C@@H]2CCCCN2)C1 + C#Cc1c(F)ccc2cc(O)cc(-c3ncc4c(N5CC6CCC(C5)N6)nc(OCC56CCCN5CC(F)C6)nc4c3F)c12
inactive: viability, T/C [7] 92% | viability, T/C [8] 73% | viability, T/C [9] 80.9% | viability, T/C [10] 42.3% | viability, T/C [11] 27.6% | viability, T/C [12] 19.7% | viability, T/C [13] 86.3% | viability, T/C [14] 75.2% | viability, T/C [15] 62.5% | viability, T/C [16] 42.5% | viability, T/C [17] 26% | viability, T/C [18] 16.9% | viability, T/C [19] 87.7% | viability, T/C [20] 77.5% | viability, T/C [21] 58.5% | viability, T/C [22] 37.2% | viability, T/C [23] 23% | viability, T/C [24] 15.6% | viability, T/C [25] 75.3% | viability, T/C [26] 77.1% | viability, T/C [27] 59.1% | viability, T/C [28] 29% | viability, T/C [29] 20.5% | viability, T/C [30] 14.9% | viability, T/C [31] 79.8% | viability, T/C [32] 75.6% | viability, T/C [33] 56.4% | viability, T/C [34] 30.5% | viability, T/C [35] 20.7% | viability, T/C [36] 15.6% | viability, T/C [37] 97.2% | viability, T/C [38] 75.1% | viability, T/C [39] 41.8% | viability, T/C [40] 25.4% | viability, T/C [41] 17.5% | viability, T/C [42] 12.1%
0.0425 µM: IC50 [5]
0.0504 µM: IC50 [3]
0.0635 µM: IC50 [2]
0.0455 µM: IC50 [4]
0.08 µM: IC50 [1]
0.0249 µM: IC50 [6]
